Measurements published in ChEMBL document CHEMBL1145758, “In vivo characterization of A-192411: a novel fungicidal lipopeptide (II)” (2003).
In brackets after ≈: the same amount, converted by molar mass. Starred links: 1 amine or outer side, 2 acyl side, 3 side chain; linkers in the order of their positions; H or OH if unused. Positions of bridges follow the written chain, without caps; N, C: chain ends. Non-standard residues stand in square brackets, D forms with d. Residues, ends and D or L forms follow the SMILES beside them. *: point of attachment. pTerphenylCO(4''-OnC5H11) = CCCCCOc1ccc(-c2ccc(-c3ccc(C(=O)*)cc3)cc2)cc1; X1 = NCC(=O)Nc1cc(CC[C@H](N[*:1])C(=O)[*:2])ccc1O; X2 = NC(N)=N[C@H]1CC(C(=O)[*:2])N([*:1])C1; Hyp = O=C(O)[C@@H]1C[C@@H](O)CN1; Orn = NCCC[C@H](N)C(=O)O

Columns and labels:
Type in all cases: functional
Aspergillus fumigatus = experiment: Minimum inhibitory concentration against Aspergillus fumigatus
Candida albicans [1] = experiment: Minimum inhibitory concentration against 41 strains of C. albicans; Range is 0.25-1.0 ug/mL
Candida albicans [2] = experiment: Minimum inhibitory concentration against Candida albicans (CAF2)
Mus musculus = organism: Mus musculus; experiment: Minimum inhibitory concentration against Candida albicans (CCH442) tested in mice
Rattus norvegicus = organism: Rattus norvegicus; experiment: Minimum inhibitory concentration against Candida albicans (CCH442) tested in rats

SMILES | MIC (Aspergillus fumigatus) | MIC (Candida albicans [1]) | MIC (Candida albicans [2]) | MIC (Mus musculus) | MIC (Rattus norvegicus)
CCCCCOc1ccc(-c2ccc(-c3ccc(C(=O)N[C@H]4CCCNC(=O)C5C[C@H](N=C(N)N)CN5C(=O)[C@H]([C@@H](C)O)NC(=O)[C@H](CCc5ccc(O)c(NC(=O)CN)c5)NC(=O)[C@@H]5C[C@@H](O)CN5C(=O)[C@H]([C@@H](C)O)NC4=O)cc3)cc2)cc1 (stereo not given in full) ({pTerphenylCO(4''-OnC5H11)}-[Orn]T[Hyp][X1]T[X2]; lactam 1-C) | > 100 µg/mL | 0.25 µg/mL (≈ 0.213 µM) | 0.25 µg/mL (≈ 0.213 µM) | 0.5 µg/mL (≈ 0.425 µM) | 0.5 µg/mL (≈ 0.425 µM)
C[C@@H]1[C@H](O)[C@@H](C)/C=C/C=C/C=C/C=C/C=C/C=C/C=C/[C@H](O[C@@H]2O[C@H](C)[C@@H](O)[C@H](N)[C@@H]2O)C[C@@H]2O[C@](O)(C[C@@H](O)C[C@@H](O)[C@H](O)CC[C@@H](O)C[C@@H](O)CC(=O)O[C@H]1C)C[C@H](O)[C@H]2C(=O)O [AMPHOTERICIN B] | 0.78 µg/mL (≈ 0.844 µM) |  | 0.5 µg/mL (≈ 0.541 µM) | 1 µg/mL (≈ 1.08 µM) | 1 µg/mL (≈ 1.08 µM)
OC(Cn1cncn1)(Cn1cncn1)c1ccc(F)cc1F [FLUCONAZOLE] |  |  |  |  | 0.19 µg/mL (≈ 0.62 µM)
